Measurements reported in patent publication US20200010482A1, “INHIBITORS OF BETA SECRETASE” (Janssen Pharmaceutica NV, priority 2017, published 2020).

What was measured:
[1] = test system: Abeta total produced and secreted by SKNBE2 cells expressing hAPP695; experiment: Cellular αLisa assay in SKNBE2 cells, Abeta total; format: cell-based, human; details: SKNBE2 cells expressing hAPP695, 18 hours incubation
Experimental: In two αLisa assays the levels of Abeta total and Abeta 1-42 produced and secreted into the medium of human neuroblastoma SKNBE2 cells are quantified. The assay is based on the human neuroblastoma SKNBE2 expressing the wild type Amyloid Precursor Protein (hAPP695). The compounds are diluted and added to these cells, incubated for 18 hours and then measurements of Abeta 1-42 and Abeta total are taken. Abeta total and Abeta 1-42 are measured by sandwich αLisa. αLisa is a sandwich assay using biotinylated antibody AbN/25 attached to streptavidin coated beads and antibody Ab4G8 or cAb42/26 conjugated acceptor beads for the detection of Abeta total and Abeta 1-42 respectively. In the presence of Abeta total or Abeta 1-42, the beads come into close proximity. The excitation of the donor beads provokes the release of singlet oxygen molecules that trigger a cascade of energy transfer in the acceptor beads, resulting in light emission. Light emission is measured after 1 hour incubation (excitation at […] and emission at 615 nm).
A best-fit curve is fitted by a minimum sum of squares method to the plot of % Controlmin versus compound concentration. From this an IC50 value (inhibitory concentration causing 50% inhibition of activity) can be obtained. • LC=Median of the low control values=Low control: cells preincubated without compound, without biotinylated Ab in the αLisa • HC=Median of the High control values=High Control: cells preincubated without compound
% Effect=100−[(sample−LC)/(HC−LC)*100]
% Control=(sample/HC)*100
% Controlmin=(sample−LC)/(HC−LC)*100

β-secretase I (BACE1) = β-secretase I (BACE1) (Homo sapiens, UniProt P56817); experiment: Biochemical assay, automated (CyclOps), BACE1; details: automated CyclOps bioassay; for IC50: read-out: AUTOMATED ASSAY BACE1 pIC50 (converted)
Experimental: (§1) Unless otherwise indicated all biochemicals were purchased from Sigma-Aldrich Chemical Company, Poole, Dorset, U.K. and non-aqueous solvents, of analytical or higher grade, were purchased from ThermoFisher Scientific, Loughborough, U.K. MilliQ water (Elix 5 & MilliQ Gradient; Merck Millipore) was used as the base aqueous solvent to make up the biological buffers. Base assay buffer was prepared by adding a 50 mM solution of citric acid (1.00244; Merck Biosciences) to stirring solution of 50 mM trisodium citrate (1.06448; Merck Biosciences) until a final pH of 5.0 was achieved. […] All assays were routinely carried out in 384-well assay plates (Costar 4514; Corning Life Sciences) and incubated at 37±1° C. for 60 min. prior to reading the endpoint fluorescence intensity. The (7-methoxyl coumarin-4-yl)acetic acid based substrate β-secretase substrate VI (M2465; Bachem) was prepared as a 1 mM stock in 100% DMSO (D/4121/PB08; ThermoFisher). Assay buffer was prepared by adding DMSO to base buffer to a final concentration of 1% (vol./vol.). β-secretase I (18.64 μM; “BACE1”) and β-secretase II (4.65 μM; “BACE2”) were obtained from Janssen Pharmaceutica, Beerse, Belgium and were stored as frozen aliquots (˜20 μl) and thawed as required.
(§2) Typically 12.5 μl of assay buffer was dispensed to rows B to P of the assay plate. To row A was added 18.75 μl of test compound diluted appropriately in assay buffer. A 6.25 μl aliquot of sample was transferred from row A to row B and the sample mixed three times by pipette. The process was repeated down the plate and 6.25 μl of solution discarded at row N post-mix. Rows O and P were designated as the positive and negative controls. To row P was added 6.25 μl base buffer. To rows A to O was added 6.25 μl enzyme (freshly prepared 40 nM BACE1 or 40 nM BACE2) diluted in base buffer. To initiate the assay 6.25 μl of freshly prepared 80 μM substrate, made up by diluting the 1 mM in 100% DMSO solution into HPLC grade water (Optima W6-212; ThermoFisher), was added to all the wells. The assay plate was covered and incubated at 37±1° C. for 60 min. The fluorescence intensity of the wells was read at 360/405 nm (excitation/emission) utilising a nine reads per well protocol (50 ms integration; density of 3, 0.25 mm spacing; SpectraMAX Paradigm plate reader; TUNE cartridge; SoftMax Pro v 6.3 software; Molecular Devices UK Ltd., Wokingham, Berkshire, UK) and outputting the median value of the nine reads as a text file. Data analysis was carried out using Prism software v 6.3 (GraphPad Inc., San Diego, Calif., USA) using the non-linear regression analysis models supplied by the vendor. For IC50 determinations the four parameter logistic variable slope model was used to fit the raw fluorescence intensity data with the ‘bottom’ fixed to the negative control.
(§3) The CyclOps bioassay module consisted of a fraction collection station, a reagent station, liquid handling robotics, plate store and an integrated plate reader (SpectraMAX Paradigm, TUNE cartridge, SoftMax Pro v 6.3; Molecular Devices). The fraction collection station composed of a 384 well collection plate (P-384-240SQ-C; Axygen, Union City, Calif., USA) mounted on a H-portal carriage (Festo AG & Co. KG, Esslingen, Germany), a syringe drive and a two-way six port injection valve fitted with a 200 μl loop (VICI AG International, Schenkon Switzerland). The output of the injection valve was addressable to all the positions of a 384 well collection plate. The reagent station consisted of hydraulically cooled (10-12° C.) aluminium segments; each manufactured to house a SBS microtiter plate footprint. Independent addressable reagent stations were housed within these sections. Where required, custom aluminium housings were used to accommodate standard laboratory plastic ware (e.g. Eppendorf tubes, Falcon tubes, etc.). As and when required the reagent reservoirs were covered and the lids contained holes through which the Teflon-coated probe could access solutions. […]

β-secretase II (BACE2) = target: T1, β-secretase II (BACE2) (Homo sapiens, UniProt Q9Y5Z0); experiment: Biochemical assay, automated (CyclOps), BACE2; details: automated CyclOps bioassay; for IC50: read-out: AUTOMATED ASSAY BACE2 pIC50 (converted)
T1 sequence (Q9Y5Z0 63-518): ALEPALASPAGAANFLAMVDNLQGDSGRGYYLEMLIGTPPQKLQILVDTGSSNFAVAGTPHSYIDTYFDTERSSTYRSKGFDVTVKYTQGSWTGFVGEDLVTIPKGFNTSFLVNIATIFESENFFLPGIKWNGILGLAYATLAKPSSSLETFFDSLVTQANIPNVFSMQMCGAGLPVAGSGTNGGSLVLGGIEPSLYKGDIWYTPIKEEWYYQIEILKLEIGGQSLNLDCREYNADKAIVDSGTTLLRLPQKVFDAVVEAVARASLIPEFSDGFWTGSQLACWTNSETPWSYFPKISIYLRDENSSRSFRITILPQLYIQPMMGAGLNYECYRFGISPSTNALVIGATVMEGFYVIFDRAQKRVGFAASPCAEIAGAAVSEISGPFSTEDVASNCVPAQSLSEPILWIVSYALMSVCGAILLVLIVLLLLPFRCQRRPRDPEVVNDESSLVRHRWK
Experimental: as §1, §2, §3

β-secretase I (BACE1), sequence (P56817 46-501): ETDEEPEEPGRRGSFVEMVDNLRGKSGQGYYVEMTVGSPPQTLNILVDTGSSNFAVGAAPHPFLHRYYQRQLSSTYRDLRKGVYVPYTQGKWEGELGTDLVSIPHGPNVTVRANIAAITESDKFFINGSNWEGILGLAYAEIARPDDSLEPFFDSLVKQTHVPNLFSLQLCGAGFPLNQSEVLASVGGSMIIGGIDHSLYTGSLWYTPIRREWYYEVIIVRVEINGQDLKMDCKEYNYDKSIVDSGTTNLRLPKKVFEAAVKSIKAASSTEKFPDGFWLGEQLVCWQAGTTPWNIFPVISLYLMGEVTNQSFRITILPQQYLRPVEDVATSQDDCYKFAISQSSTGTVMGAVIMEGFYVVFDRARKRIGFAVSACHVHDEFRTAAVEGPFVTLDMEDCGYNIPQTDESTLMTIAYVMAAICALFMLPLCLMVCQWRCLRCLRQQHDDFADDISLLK

| SMILES | IC50 (β-secretase I (BACE1)) | IC50 (β-secretase II (BACE2)) | AUTOMATED ASSAY BACE1 pIC50 (β-secretase I (BACE1)) | AUTOMATED ASSAY BACE2 pIC50 (β-secretase II (BACE2)) | other results |
| --- | --- | --- | --- | --- | --- |
| COc1ncc(C#N)c2c1C[C@]1(c3ccccc3F)N=C(N)SC[C@@H]1C2 (racemic) [Compound 22] |  |  |  |  | IC50 ([1]; Homo sapiens, SKNBE2, 18 h, read-out: CELLULAR αLISA ASSAY IN SKNBE2 CELLS ABETA TOTAL pIC50 (converted)): 49 nM |
| COC/C=C/c1cnc(OC)c2c1C[C@H]1CSC(N)=N[C@@]1(c1ccc(F)cc1F)C2 [Compound 47] | 9.77 nM | 5.89 nM |  |  |  |
| COc1ncc(-c2ccccc2)c2c1C[C@]1(c3ccc(F)cc3F)N=C(N)SC[C@@H]1C2 [Compound 49] |  |  | 8.6 | 9.02 | CELLULAR αLISA ASSAY IN SKNBE2 CELLS ABETA TOTAL pIC50 [1]: 8.75 |
| COc1ncc(-c2ccccc2C)c2c1C[C@]1(c3ccc(F)cc3F)N=C(N)SC[C@@H]1C2 [Compound 55] |  |  | 7.77 | 7.3 |  |
| COc1ncc(-c2cc(Cl)ccc2C)c2c1C[C@]1(c3ccc(F)cc3F)N=C(N)SC[C@@H]1C2 [Compound 60] |  |  | 7.65 | 6.73 |  |
| COc1cc(C)c(-c2cnc(OC)c3c2C[C@H]2CSC(N)=N[C@@]2(c2ccc(F)cc2F)C3)cn1 [Compound 106] | 4.68 nM | 75.9 nM |  |  |  |
